# Measurements: ChEMBL document CHEMBL2385075, “Anti-inflammatory and antinociceptive activity of epiisopiloturine, an imidazole alkaloid isolated from Pilocarpus microphyllus” (J Nat Prod, 2013)
# The source made the active and inactive calls. The rule behind the calls is not given here.
# Assays:
# Mus musculus [1] = experiment: Neurotoxicity in Swiss mouse assessed as motor impairment at 5 mg/kg, ip administered 60 mins measured for 1 min by rotarod test; type: toxicity, organism-based; design: dose 5 mg/kg, route intraperitoneal; conditions: in vivo
# Mus musculus [2] = experiment: Antiinflammatory activity in Swiss mouse assessed as inhibition of carrageenan-induced paw edema at 0.3 mg/kg, ip measured at 3 hrs by plethysmometric analysis relative to untreated control; type: functional; conditions: route intraperitoneal
# Mus musculus [3] = experiment: Antiinflammatory activity in Swiss mouse assessed as inhibition of serotonin-induced paw edema at 1 mg/kg, ip administered 30 mins prior to serotonin challenge measured after 4 hrs relative to untreated control; type: functional; conditions: route intraperitoneal
# Mus musculus [4] = experiment: Antiinflammatory activity in Swiss mouse assessed as inhibition of carrageenan-induced paw edema at 1 mg/kg, ip measured at 3 hrs by plethysmometric analysis relative to untreated control; type: functional; conditions: route intraperitoneal
# Mus musculus [5] = experiment: Antiinflammatory activity in Swiss mouse assessed as reduction of carrageenan-induced paw myeloperoxidase activity measured per mg of tissue at 1 mg/kg, ip administered 30 mins prior to carrageenan challenge measured after 4 hrs (reference value: 10.9 +/- 1.2 U); type: functional; conditions: route intraperitoneal
# Mus musculus [6] = experiment: Antiinflammatory activity in Swiss mouse assessed as inhibition of carrageenan-induced total leukocytes migration into peritoneal cavity at 1 mg/kg, ip administered 30 mins prior to carrageenan challenge measured after 4 hrs relative to carrageenan-treated control; type: functional; conditions: route intraperitoneal
# Mus musculus [7] = experiment: Antiinflammatory activity in Swiss mouse assessed as inhibition of carrageenan-induced paw edema at 0.1 mg/kg, ip measured at 4 hrs by plethysmometric analysis relative to untreated control; type: functional; conditions: route intraperitoneal
# Mus musculus [8] = experiment: Antinociceptive activity in Swiss mouse assessed as inhibition of formalin-induced paw licking at 1 mg/kg, ip administered 30 mins prior to formalin challenge measured during neurogenic phase for 1 to 5 mins; type: functional; conditions: route intraperitoneal
# Mus musculus [9] = experiment: Antinociceptive activity in Swiss mouse assessed as increase in latency time at 1 mg/kg, ip administered 30 mins prior to testing measured after 30 to 120 mins by hot plate test; type: functional, organism-based; design: dose 1 mg/kg
# Mus musculus [10] = experiment: Antiinflammatory activity in Swiss mouse assessed as inhibition of carrageenan-induced paw edema at 1 mg/kg, ip measured at 2 hrs by plethysmometric analysis relative to untreated control; type: functional; conditions: route intraperitoneal
# Mus musculus [11] = experiment: Antinociceptive activity in Swiss mouse assessed as inhibition of acetic acid-induced abdominal writhing response at 1 mg/kg, ip administered 30 mins prior to acetic acid challenge measured for 10 to 20 mins; type: functional; conditions: Abdomen, route intraperitoneal
# Mus musculus [12] = experiment: Antinociceptive activity in Swiss mouse assessed as inhibition of formalin-induced paw licking at 1 mg/kg, ip administered 30 mins prior to formalin challenge measured during neurogenic phase for 1 to 5 mins in presence of opioid receptor antagonist naloxone; type: functional, organism-based; design: dose 1 mg/kg
# Mus musculus [13] = experiment: Antiinflammatory activity in Swiss mouse assessed as inhibition of histamine-induced paw edema at 1 mg/kg, ip administered 30 mins prior to histamine challenge measured after 60 mins relative to untreated control; type: functional, organism-based; design: dose 1 mg/kg
# Mus musculus [14] = experiment: Antiinflammatory activity in Swiss mouse assessed as inhibition of dextran sulfate-induced paw edema at 1 mg/kg, ip administered 30 mins prior to dextran sulfate challenge measured after 4 hrs relative to untreated control; type: functional; conditions: route intraperitoneal
# Mus musculus [15] = experiment: Antinociceptive activity in Swiss mouse assessed as inhibition of formalin-induced paw licking at 1 mg/kg, ip administered 30 mins prior to formalin challenge measured during inflammatory phase for 20 to 25 mins; type: functional; conditions: route intraperitoneal
# Mus musculus [16] = experiment: Antiinflammatory activity in Swiss mouse assessed as inhibition of bradykinin-induced paw edema at 1 mg/kg, ip administered 30 mins prior to bradykinin challenge measured after 60 mins in presence of captopril relative to untreated control; type: functional; conditions: route intraperitoneal
# Mus musculus [17] = experiment: Antiinflammatory activity in Swiss mouse assessed as reduction of carrageenan-induced IL-1beta level into peritoneal fluid at 1 mg/kg, ip administered 1 hr prior to carrageenan challenge measured after 4 hrs by sandwich ELISA; type: functional, organism-based; design: dose 1 mg/kg
# Mus musculus [18] = experiment: Antiinflammatory activity in Swiss mouse assessed as inhibition of carrageenan-induced paw edema at 0.1 mg/kg, ip measured at 2 hrs by plethysmometric analysis relative to untreated control; type: functional; conditions: route intraperitoneal
# Mus musculus [19] = experiment: Antiinflammatory activity in Swiss mouse assessed as inhibition of carrageenan-induced paw edema at 0.3 mg/kg, ip measured at 2 hrs by plethysmometric analysis relative to untreated control; type: functional; conditions: route intraperitoneal
# Mus musculus [20] = experiment: Antiinflammatory activity in Swiss mouse assessed as reduction of carrageenan-induced TNFalpha level into peritoneal fluid at 1 mg/kg, ip administered 1 hr prior to carrageenan challenge measured after 4 hrs by sandwich ELISA; type: functional, organism-based; design: dose 1 mg/kg
# Mus musculus [21] = experiment: Antiinflammatory activity in Swiss mouse assessed as inhibition of carrageenan-induced paw edema at 0.3 mg/kg, ip measured at 4 hrs by plethysmometric analysis relative to untreated control; type: functional; conditions: route intraperitoneal
# Mus musculus [22] = experiment: Antiinflammatory activity in Swiss mouse assessed as inhibition of carrageenan-induced paw edema at 0.1 mg/kg, ip measured at 1 hr by plethysmometric analysis relative to untreated control; type: functional; conditions: route intraperitoneal
# Mus musculus [23] = experiment: Antiinflammatory activity in Swiss mouse assessed as inhibition of carrageenan-induced paw edema at 0.3 mg/kg, ip measured at 1 hr by plethysmometric analysis relative to untreated control; type: functional; conditions: route intraperitoneal
# Mus musculus [24] = experiment: Antiinflammatory activity in Swiss mouse assessed as inhibition of carrageenan-induced paw edema at 1 mg/kg, ip measured at 1 hr by plethysmometric analysis relative to untreated control; type: functional; conditions: route intraperitoneal
# Mus musculus [25] = experiment: Neurotoxicity in Swiss mouse assessed as motor impairment at 1 to 10 mg/kg, ip administered 60 mins measured for 1 min by rotarod test; type: toxicity, organism-based; design: dose 1-10 mg/kg, route intraperitoneal; conditions: in vivo
# Mus musculus [26] = experiment: Antiinflammatory activity in Swiss mouse assessed as inhibition of carrageenan-induced paw edema at 1 mg/kg, ip measured at 4 hrs by plethysmometric analysis relative to untreated control; type: functional; conditions: route intraperitoneal
# Mus musculus [27] = experiment: Antiinflammatory activity in Swiss mouse assessed as inhibition of carrageenan-induced paw edema at 0.1 mg/kg, ip measured at 3 hrs by plethysmometric analysis relative to untreated control; type: functional; conditions: route intraperitoneal
# Mus musculus [28] = experiment: Antiinflammatory activity in Swiss mouse assessed as inhibition of carrageenan-induced neutrophil migration into peritoneal cavity at 1 mg/kg, ip administered 30 mins prior to carrageenan challenge measured after 4 hrs relative to carrageenan-treated control; type: functional; conditions: route intraperitoneal
# Mus musculus [29] = experiment: Antiinflammatory activity in Swiss mouse assessed as inhibition of histamine-induced paw edema at 10 mg/kg, ip administered 30 mins prior to histamine challenge measured after 60 mins relative to untreated control; type: functional, organism-based; design: dose 10 mg/kg
# Mus musculus [30] = experiment: Antiinflammatory activity in Swiss mouse assessed as inhibition of bradykinin-induced paw edema at 10 mg/kg, ip administered 30 mins prior to bradykinin challenge measured after 60 mins in presence of captopril relative to untreated control; type: functional, organism-based; design: dose 10 mg/kg
# Mus musculus [31] = experiment: Antiinflammatory activity in Swiss mouse assessed as inhibition of carrageenan-induced paw edema at 10 mg/kg, ip measured at 4 hrs by plethysmometric analysis relative to untreated control; type: functional; conditions: route intraperitoneal
# Mus musculus [32] = experiment: Antiinflammatory activity in Swiss mouse assessed as inhibition of serotonin-induced paw edema at 10 mg/kg, ip administered 30 mins prior to serotonin challenge measured after 4 hrs relative to untreated control; type: functional, organism-based; design: dose 10 mg/kg
# Mus musculus [33] = experiment: Antiinflammatory activity in Swiss mouse assessed as reduction of carrageenan-induced paw myeloperoxidase activity measured per mg of tissue at 10 mg/kg, ip administered 30 mins prior to carrageenan challenge measured after 4 hrs (reference value: 10.9 +/- 1.2 U); type: functional; conditions: route intraperitoneal
# Mus musculus [34] = experiment: Antiinflammatory activity in Swiss mouse assessed as inhibition of carrageenan-induced neutrophil migration into peritoneal cavity at 10 mg/kg, ip administered 30 mins prior to carrageenan challenge measured after 4 hrs relative to carrageenan-treated control; type: functional; conditions: route intraperitoneal
# Mus musculus [35] = experiment: Antiinflammatory activity in Swiss mouse assessed as inhibition of dextran sulfate-induced paw edema at 10 mg/kg, ip administered 30 mins prior to dextran sulfate challenge measured after 4 hrs relative to untreated control; type: functional, organism-based; design: dose 10 mg/kg
# Mus musculus [36] = experiment: Antiinflammatory activity in Swiss mouse assessed as inhibition of carrageenan-induced paw edema at 10 mg/kg, ip measured at 1 hr by plethysmometric analysis relative to untreated control; type: functional; conditions: route intraperitoneal
# Mus musculus [37] = experiment: Antiinflammatory activity in Swiss mouse assessed as inhibition of carrageenan-induced total leukocytes migration into peritoneal cavity at 10 mg/kg, ip administered 30 mins prior to carrageenan challenge measured after 4 hrs relative to carrageenan-treated control; type: functional; conditions: route intraperitoneal
# Mus musculus [38] = experiment: Antiinflammatory activity in Swiss mouse assessed as inhibition of carrageenan-induced paw edema at 10 mg/kg, ip measured at 3 hrs by plethysmometric analysis relative to untreated control; type: functional; conditions: route intraperitoneal
# Mus musculus [39] = experiment: Antiinflammatory activity in Swiss mouse assessed as inhibition of carrageenan-induced paw edema at 10 mg/kg, ip measured at 2 hrs by plethysmometric analysis relative to untreated control; type: functional; conditions: route intraperitoneal
# Mus musculus [40] = species: Mus musculus; experiment: animal or person; conditions: Swiss, sc, read-out: INH
# Description: Antinociceptive activity in Swiss mouse assessed as inhibition of formalin-induced paw licking at 5 mg/kg, sc administered 30 mins prior to formalin challenge measured during inflammatory phase for 20 to 25 mins
# Mus musculus [41] = species: Mus musculus; experiment: animal or person; conditions: Swiss, Abdomen, ip, read-out: INH
# Description: Antinociceptive activity in Swiss mouse assessed as inhibition of acetic acid-induced abdominal writhing response at 5 mg/kg, ip administered 30 mins prior to acetic acid challenge measured for 10 to 20 mins
# Mus musculus [42] = experiment: Antinociceptive activity in Swiss mouse assessed as increase in latency time at 5 mg/kg, sc administered 30 mins prior to testing measured after 30 to 120 mins by hot plate test; type: functional, organism-based; design: dose 5 mg/kg
# Mus musculus [43] = species: Mus musculus; experiment: animal or person; conditions: Swiss, sc, read-out: INH; remark: listed apart in the source
# Description: Antinociceptive activity in Swiss mouse assessed as inhibition of formalin-induced paw licking at 5 mg/kg, sc administered 30 mins prior to formalin challenge measured during neurogenic phase for 1 to 5 mins
compound,measurement,setting,value
CN1C(=O)CN=C(c2ccccc2)c2cc(Cl)ccc21 [DIAZEPAM],Activity,Mus musculus [1],Toxic
Cn1cnc(C[C@H]2COC(=O)[C@@H]2[C@H](O)c2ccccc2)c1 [EPIISOPILOTURINE],inhibition in vivo at 0.3 mg/kg,Mus musculus [2],70%
same,inhibition in vivo at 1 mg/kg,Mus musculus [3],46.7%
same,inhibition in vivo at 1 mg/kg,Mus musculus [4],85%
same,Activity,Mus musculus [5],3.8 U
same,inhibition in vivo at 1 mg/kg,Mus musculus [6],55.2%
same,inhibition in vivo at 0.1 mg/kg,Mus musculus [7],49.7%
same,inhibition in vivo at 1 mg/kg,Mus musculus [8],58.2%
same,Activity,Mus musculus [9],inactive
same,inhibition in vivo at 1 mg/kg,Mus musculus [10],79.5%
same,inhibition in vivo at 1 mg/kg,Mus musculus [11],66.4%
same,Activity,Mus musculus [12],inactive
same,inhibition,Mus musculus [13],inactive
same,inhibition in vivo at 1 mg/kg,Mus musculus [14],54.1%
same,inhibition in vivo at 1 mg/kg,Mus musculus [15],89.2%
same,inhibition in vivo at 1 mg/kg,Mus musculus [16],76.9%
same,Activity,Mus musculus [17],Active
same,inhibition in vivo at 0.1 mg/kg,Mus musculus [18],46.8%
same,inhibition in vivo at 0.3 mg/kg,Mus musculus [19],71.3%
same,Activity,Mus musculus [20],Active
same,inhibition in vivo at 0.3 mg/kg,Mus musculus [21],67.6%
same,inhibition in vivo at 0.1 mg/kg,Mus musculus [22],36%
same,inhibition in vivo at 0.3 mg/kg,Mus musculus [23],48%
same,inhibition in vivo at 1 mg/kg,Mus musculus [24],65%
same,Activity,Mus musculus [25],Non-toxic
same,inhibition in vivo at 1 mg/kg,Mus musculus [26],73%
same,inhibition in vivo at 0.1 mg/kg,Mus musculus [27],55%
same,inhibition in vivo at 1 mg/kg,Mus musculus [28],73.8%
COc1ccc2c(c1)c(CC(=O)O)c(C)n2C(=O)c1ccc(Cl)cc1 [INDOMETHACIN],inhibition,Mus musculus [29],Active
same,inhibition,Mus musculus [30],Active
same,inhibition in vivo at 10 mg/kg,Mus musculus [31],37%
same,inhibition,Mus musculus [32],Active
same,Activity,Mus musculus [33],3.1 U
same,inhibition in vivo at 10 mg/kg,Mus musculus [34],79.6%
same,inhibition,Mus musculus [35],Active
same,inhibition in vivo at 10 mg/kg,Mus musculus [36],55%
same,inhibition in vivo at 10 mg/kg,Mus musculus [37],60.2%
same,inhibition in vivo at 10 mg/kg,Mus musculus [38],43.7%
same,inhibition in vivo at 10 mg/kg,Mus musculus [39],50.9%
CN1CC[C@]23c4c5ccc(O)c4O[C@H]2[C@@H](O)C=C[C@H]3[C@H]1C5 [MORPHINE],inhibition in vivo at 5 mg/kg,Mus musculus [40],97.2%
same,inhibition in vivo at 5 mg/kg,Mus musculus [41],98.3%
same,Activity,Mus musculus [42],Active
same,inhibition in vivo at 5 mg/kg,Mus musculus [43],94%
